The term Cmax denotes the maximum level reached in the sampled fluid or tissue.

The record followed here is patent US7910617B2 (Sankyo Company, Limited, priority 2004, dated 2011).

In series [1] the test system is Rat Peripheral Blood Lymphocyte Count. Briefly: Measurement of rat peripheral blood lymphocyte count (relative count and ID50) after oral administration. The class given is in vivo. The settings on record: LEW rats; for Lymphocyte Count (Relative Value Based on a value of 100% for Normal Control Group) (%): blood collected 3 hours after administration, dose not given; for ID50 of rat peripheral blood lymphocyte count: dosage giving 50% inhibition rate of lymphocyte count. The protocol: Measurement of Rat Peripheral Blood Lymphocyte Count
• (1) LEW rats (males, age 5 weeks, Japan Charles River) were used in groups of 5 animals per group. • (2) Administration of Compounds
The compounds were suspended in 1% tragacanth liquid (solvent). The suspended compounds were orally administered to the rats using a gastric tube in a dose of 5 mL per kg of body weight. Furthermore, the solvent was administered instead of the suspended compounds to a normal control group. • (3) Measurement of Peripheral Blood Lymphocyte Count
Blood samples were collected from the descending vena cava under ether anesthesia 3 hours after administration of the solvent or suspended compounds, and then transferred to tubes containing EDTA.
The absolute lymphocyte counts were measured for the collected blood samples using a hematology testing device. Lymphocyte count lowering activity of the test compounds was calculated as a relative value (%) based on a value of 100% for the lymphocyte count of the normal control group.
Measurement of ID50 of Rat Peripheral Blood Lymphocyte Count (mg/kg)
Inhibition rate (%) ={1-(lymphocyte count of compound dose group/lymphocyte count of solvent dose group)}×100 The dosage of the compound that yielded a value of 50% for the inhibition rate was calculated as the ID50 value.

Series [2] in a line: Rat pharmacokinetics (dosage: 1 mg/kg), blood compound concentrations. Type of series: in vivo. The settings on record: male, whole blood, po, LEWIS rats, 1 mg/kg directly into the stomach; for AUC(0-t): read-out: AUC (0–24 h); for half-life: read-out: T½ (converted). How it is done: Rat Pharmacokinetics (dosage: 1 mg/kg)
• (1) LEWIS rats (males, age 6 weeks, Japan Charles River) were used after acclimating for 1 week. 1 to 3 rats were used for each compound. • (2) Administration of Compounds
The compounds were dissolved in an aqueous physiological saline solution containing 4% (w/v) sulfobutyl ether β-cyclodextrin. The rats were administered the dissolved compounds directly into the stomach using a metal gastric tube in a dose of 2 mL per kg of body weight. • (3) Measurement of Blood Compound Concentrations
Blood samples were collected at 0.1 mL/animal/collection from the jugular vein using heparin as anticoagulant under ether anesthesia at predetermined times after administering the compounds. The blood samples were promptly treated with methanol after collection, and were placed in frozen storage until the time of measurement treatment. After treating the resulting blood samples by solid phase extraction, blood compound concentrations were measured with a high-performance liquid chromatograph-quadropole mass spectrometer. Various pharmacokinetic parameters were then calculated using pharmacokinetics analysis software (Winnonlin Professional) from the resulting blood concentrations.

Take `CC(N)(CO)CCc1ccc(C(=O)CCCCc2ccccc2)s1` (centres unmarked) [Comparative Compound 1, reference compound]: the “Lymphocyte Count (Relative Value Based on a value of 100% for Normal Control Group) (%)” value in series [1] is reported as 30%.
On to `Cn1c(CC[C@@](C)(N)CO)ccc1C(=O)CCCc1ccccc1` [Comparative Compound 2, reference compound], for which, in series [1], the “Lymphocyte Count (Relative Value Based on a value of 100% for Normal Control Group) (%)” value is on record as 31% and the “ID50 of rat peripheral blood lymphocyte count” value (from here on “ID50”) is recorded as 0.78 mg/kg.
With `Cc1ccc(CCCC(=O)c2ccc(CC[C@@](C)(N)CO)n2C)cc1.Cl` [Example 1, (2R) -2-Amino-2-methyl-4-{1-methyl-5-[4-(4-methylphenyl)butanoyl]pyrrol-2-yl}butan-1-ol hydrochloride], in series [1], the “Lymphocyte Count (Relative Value Based on a value of 100% for Normal Control Group) (%)” value stood at 8% and the “ID50” value is 0.21 mg/kg. Moreover, in series [2], the peak concentration (Cmax) amounted to 19.4 ng/mL, the AUC(0-t) amounted to 288 ng·h/mL and the half-life is 15.6 h.
For the compound `Cc1ccc(CCCC(=O)c2ccc(CC[C@@](C)(N)CO)n2C)cc1C.Cl` [Example 2, (2R)-2-Amino-2-methyl-4-{1-methyl-5-[4-(3,4-dimethylphenyl)butanoyl]pyrrol-2-yl}butan-1-ol hydrochloride], in series [2], the peak concentration (Cmax) amounted to 8.4 ng/mL, the AUC(0-t) was 123 ng·h/mL and the half-life is 8.5 h.
In the case of `Cc1ccc(CCCC(=O)c2ccc(CC[C@@](C)(N)CO)n2C)cc1C.Cl` [Example 2], the “ID50” value in series [1] was 0.42 mg/kg.
In the case of `COc1ccc(CCCC(=O)c2ccc(CC[C@@](C)(N)CO)n2C)cc1C.Cl` [Example 11, (2R)-2-Amino-2-methyl-4-{1-methyl-5-[4-(3-methyl-4-methoxyphenyl)butanoyl]pyrrol-2-yl}butan-1-ol hydrochloride], in series [1], the “Lymphocyte Count (Relative Value Based on a value of 100% for Normal Control Group) (%)” value is 11% and the “ID50” value was 0.39 mg/kg. In series [2], the maximum concentration (Cmax) is 5.38 ng/mL, the AUC(0-t) is 71.7 ng·h/mL and the half-life was 6.04 h.
